Measured values published in PubChem BioAssay (NCI).
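Here, GI50 denotes the concentration required for 50% inhibition of growth. TGI is the concentration that stops growth completely.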

Legend:
Assay in all cases: NCI tumour cell line growth inhibition, 384-well format
[1] = system: 786-0 renal
[2] = system: A498 renal
[3] = system: A549 NSCLC
[4] = system: ACHN renal
[5] = system: BT-549 breast
[6] = system: CAKI-1 renal
[7] = system: CCRF-CEM leukemia
[8] = system: COLO 205 colon
[9] = system: DU-145 prostate
[10] = system: EKVX NSCLC
[11] = system: HCC-2998 colon
[12] = system: HCT-116 colon
[13] = system: HCT-15 colon
[14] = system: HL-60(TB) leukemia
[15] = system: HOP-62 NSCLC
[16] = system: HOP-92 NSCLC
[17] = system: HS 578T breast
[18] = system: HT29 colon
[19] = system: IGROV1 ovarian
[20] = system: K-562 leukemia
[21] = system: KM12 colon
[22] = system: LOX IMVI melanoma
[23] = system: M14 melanoma
[24] = system: MALME-3M melanoma
[25] = system: MCF7 breast
[26] = system: MDA-MB-231 breast
[27] = system: MDA-MB-435 melanoma
[28] = system: MDA-MB-468 breast
[29] = system: MOLT-4 leukemia
[30] = system: NCI-H226 lung
[31] = system: NCI-H23 lung
[32] = system: NCI-H322M lung
[33] = system: NCI-H460 NSCLC
[34] = system: NCI-H522 lung
[35] = system: NCI/ADR-RES ovarian
[36] = system: OVCAR-3 ovarian
[37] = system: OVCAR-4 ovarian
[38] = system: OVCAR-5 ovarian
[39] = system: OVCAR-8 ovarian
[40] = system: PC-3 prostate
[41] = system: RPMI-8226 leukemia
[42] = system: RXF 393 renal
[43] = system: SF-268 CNS
[44] = system: SF-295 CNS
[45] = system: SF-539 CNS
[46] = system: SK-MEL-28 melanoma
[47] = system: SK-MEL-5 melanoma
[48] = system: SK-OV-3 ovarian
[49] = system: SN12C renal
[50] = system: SNB-19 CNS
[51] = system: SNB-75 CNS
[52] = system: SW-620 colon
[53] = system: T-47D breast
[54] = system: TK-10 renal
[55] = system: U251 glioblastoma
[56] = system: UACC-257 melanoma
[57] = system: UACC-62 melanoma
[58] = system: UO-31 renal

## CNC(=O)c1c(F)cccc1Nc1nc(Nc2cc3c(cc2OC)CCN3C(=O)CN(C)C)nc2[nH]ccc12
[1]
  GI50: 1480 nM
  TGI: 2840 nM
[2]
  GI50: 1820 nM
  TGI: 3.22 µM
[3]
  GI50: 1410 nM
  TGI: 2760 nM
[4]
  GI50: 1740 nM
  TGI: 3.17 µM
[5]
  GI50: 1660 nM
  TGI: 3.04 µM
[6]
  GI50: 1820 nM
  TGI: 3.24 µM
[7]
  GI50: 387 nM
  TGI: 1220 nM
[8]
  GI50: 152 nM
  TGI: 1230 nM
[9]
  GI50: 1820 nM
  TGI: 3.6 µM
[10]
  GI50: 1600 nM
  TGI: 3.09 µM
[11]
  GI50: 1410 nM
  TGI: 2760 nM
[12]
  GI50: 1440 nM
  TGI: 2790 nM
[13]
  GI50: 1250 nM
  TGI: 2610 nM
[14]
  GI50: 71.1 nM
  TGI: 944 nM
[15]
  GI50: 1830 nM
  TGI: 3.39 µM
[16]
  GI50: 1150 nM
  TGI: 2420 nM
[17]
  GI50: 1780 nM
  TGI: 3.19 µM
[18]
  GI50: 181 nM
  TGI: 1870 nM
[19]
  GI50: 1760 nM
  TGI: 3.27 µM
[20]
  GI50: 1750 nM
  TGI: 3.14 µM
[21]
  GI50: 1440 nM
  TGI: 2770 nM
[22]
  GI50: 1610 nM
  TGI: 2970 nM
[23]
  GI50: 1510 nM
  TGI: 2840 nM
[24]
  GI50: 1250 nM
  TGI: 2510 nM
[25]
  GI50: 210 nM
  TGI: 1720 nM
[26]
  GI50: 1590 nM
  TGI: 2980 nM
[27]
  GI50: 1510 nM
  TGI: 2860 nM
[28]
  GI50: 1560 nM
  TGI: 2920 nM
[29]
  GI50: 968 nM
  TGI: 2140 nM
[30]
  GI50: 1740 nM
  TGI: 3.74 µM
[31]
  GI50: 1330 nM
  TGI: 2750 nM
[32]
  GI50: 1580 nM
  TGI: 3.18 µM
[33]
  GI50: 1240 nM
  TGI: 2530 nM
[34]
  GI50: 1910 nM
  TGI: 3.33 µM
[35]
  GI50: 2230 nM
  TGI: 4.98 µM
[36]
  GI50: 1800 nM
  TGI: 3.25 µM
[37]
  GI50: 1990 nM
  TGI: 3.5 µM
[38]
  GI50: 1480 nM
  TGI: 3.24 µM
[39]
  GI50: 1710 nM
  TGI: 3.12 µM
[40]
  GI50: 2190 nM
  TGI: 4.45 µM
[41]
  GI50: 1140 nM
  TGI: 2370 nM
[42]
  GI50: 1720 nM
  TGI: 3.11 µM
[43]
  GI50: 1300 nM
  TGI: 2610 nM
[44]
  GI50: 1870 nM
  TGI: 3.29 µM
[45]
  GI50: 1800 nM
  TGI: 3.2 µM
[46]
  GI50: 1870 nM
  TGI: 3.27 µM
[47]
  GI50: 1220 nM
  TGI: 2480 nM
[48]
  GI50: 1970 nM
  TGI: 3.45 µM
[49]
  GI50: 2050 nM
  TGI: 3.5 µM
[50]
  GI50: 2350 nM
  TGI: 4.81 µM
[51]
  GI50: 2000 nM
  TGI: 3.46 µM
[52]
  GI50: 1180 nM
  TGI: 2440 nM
[53]
  GI50: 1940 nM
  TGI: 3.38 µM
[54]
  GI50: 1860 nM
  TGI: 3.54 µM
[55]
  GI50: 1900 nM
  TGI: 3.35 µM
[56]
  GI50: 1720 nM
  TGI: 3.11 µM
[57]
  GI50: 1560 nM
  TGI: 2910 nM
[58]
  GI50: 1840 nM
  TGI: 3.29 µM
